Test system: NEP transfected MEF cells
Test: Effect of HSP70/HSP90 inhibitors on EV secretion from NEP transfected MEF cells (DLS goniometry)
Assay type: cell-based, mouse
Conditions: medium collected 24 h post-transfection
Procedure: After NEP transfection, the cell culture was replaced with fresh medium containing HSP70 inhibitor (VER 155008, 50 μM), HSP90 inhibitor (NVP-HSP990, 1 μM), or their mixture. Medium was collected at 24 h post-transfection, and EV numbers were detected by dynamic light scattering (DLS) goniometry;
During electroporation, Joule heating caused by the imposed electric field could tentatively increase the cell temperature to cause thermal shocking to the transfected cells. It is known that thermal shocking may increase cell secretion of EVs due to chaperone mediated autophage caused by the increase of heat shock proteins in cells (8-10). […] When HSP inhibitors were added in cell culture medium after electroporation, EV secretion could be suppressed. […] Here, the cell culture was replaced with fresh medium containing HSP70 inhibitor (VER 155008), HSP90 inhibitor (NVP-HSP990), or their mixture right after NEP transfection. Medium was collected at 24 h post-transfection and EV numbers were detected by dynamic light scattering (DLS) goniometry.

SMILES	decrease of EV secretion (HSP70 inhibitor 50 μM in fresh medium right after NEP transfection) [%]	decrease of EV secretion (HSP90 inhibitor 1 μM in fresh medium right after NEP transfection) [%]
N#Cc1ccc(COC[C@H]2O[C@@H](n3c(NCc4ccc(Cl)c(Cl)c4)nc4c(N)ncnc43)[C@H](O)[C@@H]2O)cc1 [VER 155008]	50	
COc1cccc(-c2cc(F)ccc2[C@H]2Cc3nc(N)nc(C)c3C(=O)N2)n1 [NVP-HSP990]		40
